Laboratory results taken from ChEMBL document CHEMBL3603826, “6-Arylpyrazine-2-carboxamides: A New Core for Trypanosoma brucei Inhibitors” (J Med Chem, 2015).
Values after ≈ are worked out from the molar mass of the structure shown.

Assays:
[1] = system: Trypanosoma brucei brucei; experiment: Anti-parasitic activity against Trypanosoma brucei brucei 427 bloodstream parasites incubated for 48 hrs by alamar blue dye based assay; format: functional, organism-based; conditions: Trypanosoma brucei, 427, 48 h
[2] = Selectivity index, ratio of cytotoxic IC50 for HEK293 cells to EC50 for anti-parasitic activity against Trypanosoma brucei brucei 427 bloodstream parasites; format: toxicity, cell-based; conditions: human, read-out: Ratio IC50/EC50
[3] = system: Trypanosoma brucei rhodesiense; experiment: Anti-parasitic activity against Trypanosoma brucei rhodesiense STIB 900 trypomastigotes incubated for 70 hrs by alamar blue dye based assay; format: functional, organism-based; conditions: STIB 900, 70 h
[4] = system: Trypanosoma cruzi; experiment: Anti-parasitic activity against Trypanosoma cruzi Tulahuen C2C4 trypomastigotes infected rat L6 cells incubated for 96 hrs by CPRG/nonidet substrate based […]; format: functional, organism-based; conditions: Tulahuen C2C4, L6, 96 h
[5] = system: Leishmania donovani; experiment: Anti-parasitic activity against Leishmania donovani MHOM/ET/67/L82 axenic amastigotes incubated for 70 hrs by alamar blue dye based assay; format: functional, organism-based; conditions: MHOM/ET/67/L82, 70 h
[6] = system: Plasmodium falciparum; experiment: Anti-parasitic activity against chloroquine and pyrimethamine resistant Plasmodium falciparum K1 erythrocytic stages infected in human erythrocytes incubated for 48 hrs by [3H]-hypoxanthine incorporation assay; format: functional, organism-based
[7] = Toxicity against rat L6 cells incubated for 70 hrs by alamar blue dye based assay; format: cell-based
[8] = Selectivity index, ratio of cytotoxic IC50 for rat L6 cells to EC50 for anti-parasitic activity against Trypanosoma brucei rhodesiense STIB 900; format: toxicity, cell-based; conditions: read-out: Ratio IC50/EC50
[9] = Partition coefficient, logD of the compound at pH 7.4 by HPLC method; format: physicochemical; conditions: octanol/water
[10] = Kinetic solubility in pH 2.0 0.01M HCl buffer by nephelometry; format: physicochemical; conditions: read-out: Kinetic_solubility
[11] = Kinetic solubility in pH 6.5 phosphate buffer by nephelometry; format: physicochemical; conditions: read-out: Kinetic_solubility
[12] = target: serum albumin (Homo sapiens, UniProt P02768); experiment: Binding affinity to human serum albumin by chromatographic method; format: ADME; conditions: read-out: PB (converted)
[13] = Stability assessed as degradation half life; format: physicochemical
[14] = Intrinsic clearance in human liver microsomes assessed per mg protein at pH 7.4 at 0.5 uM in presence of NADPH regenerating system by LC-MS method; format: ADME; conditions: read-out: CLH
[15] = Toxicity in late-stage human african trypanosomiasis patient assessed as mortality rate following 10-day schedule; format: organism-based; conditions: in vivo
[16] = system: Liver microsome; experiment: Drug level in human liver microsomes treated with 10 uM 3-Amino-N-cyclopentyl-6-(m-tolyl)pyrazine-2-carboxamide assessed as compound formation after 60 mins presence of NADPH regenerating system by LC-MS method; format: ADME; conditions: 1 h
[17] = system: Liver microsome; experiment: Drug level in human liver microsomes treated with 10 uM 3-Amino-N-cyclopentyl-6-(m-tolyl)pyrazine-2-carboxamide assessed as compound formation after 60 mins presence of NADPH regenerating system and UDPGA by LC-MS method; format: ADME; conditions: 1 h
[18] = Drug metabolism in human liver microsomes after 60 mins at 10 uM presence of NADPH regenerating system by LC-MS method; format: ADME; conditions: read-out: Drug metabolism
[19] = system: Liver microsome; experiment: Drug metabolism in human liver microsomes assessed as oxygenated metabolite formation after 60 mins at 10 uM presence of NADPH regenerating system by LC-MS method; format: ADME; conditions: 1 h
[20] = system: Liver microsome; experiment: Drug metabolism in human liver microsomes assessed as oxygenated metabolite formation after 60 mins at 10 uM presence of NADPH regenerating system and UDPGA by LC-MS method; format: ADME; conditions: 1 h
[21] = Drug stability in human liver microsomes assessed as parent compound loss after 60 mins at 10 uM absence of NADPH regenerating system and UDPGA by LC-MS method; format: ADME; conditions: read-out: Drug degradation
[22] = system: Liver microsome; experiment: Drug metabolism in human liver microsomes assessed as N-oxide metabolite formation after 60 mins at 10 uM absence of NADPH regenerating system and UDPGA by LC-MS method; format: ADME; conditions: 1 h
[23] = system: Brain; experiment: Drug concentration in Swiss mouse brain at normalized dose of 1 mg/kg, iv after 5 mins by LC-MS method; format: ADME, organism-based; conditions: in vivo
[24] = Ratio of drug concentration in brain to plasma of Swiss mouse at normalized dose of 1 mg/kg, iv after 5 mins by LC-MS method; format: ADME, organism-based; conditions: read-out: BPR
[25] = Apparent half life in Swiss mouse at 1.8 mg/kg, iv by LC-MS method; format: ADME, organism-based; conditions: in vivo, read-out: t1/2(app) (converted)
[26] = Volume of distribution in Swiss mouse at 1.8 mg/kg, iv by LC-MS method; format: ADME, organism-based; conditions: in vivo
[27] = Blood clearance in Swiss mouse at 1.8 mg/kg, iv by LC-MS method; format: ADME, organism-based; conditions: whole blood
[28] = system: Mus musculus; experiment: Blood clearance in Swiss mouse at 1.8 mg/kg, iv by LC-MS method relative to hepatic blood flow; format: ADME, organism-based, Liver; conditions: in vivo
[29] = system: Liver microsome; experiment: Drug level in human liver microsomes treated with 10 uM 3-Amino-N-cyclopentyl-6-(m-tolyl)pyrazine-2-carboxamide assessed as compound formation after 60 mins absence of NADPH regenerating system and UDPGA by LC-MS method; format: ADME; conditions: 1 h

serum albumin, sequence (P02768 whole entry): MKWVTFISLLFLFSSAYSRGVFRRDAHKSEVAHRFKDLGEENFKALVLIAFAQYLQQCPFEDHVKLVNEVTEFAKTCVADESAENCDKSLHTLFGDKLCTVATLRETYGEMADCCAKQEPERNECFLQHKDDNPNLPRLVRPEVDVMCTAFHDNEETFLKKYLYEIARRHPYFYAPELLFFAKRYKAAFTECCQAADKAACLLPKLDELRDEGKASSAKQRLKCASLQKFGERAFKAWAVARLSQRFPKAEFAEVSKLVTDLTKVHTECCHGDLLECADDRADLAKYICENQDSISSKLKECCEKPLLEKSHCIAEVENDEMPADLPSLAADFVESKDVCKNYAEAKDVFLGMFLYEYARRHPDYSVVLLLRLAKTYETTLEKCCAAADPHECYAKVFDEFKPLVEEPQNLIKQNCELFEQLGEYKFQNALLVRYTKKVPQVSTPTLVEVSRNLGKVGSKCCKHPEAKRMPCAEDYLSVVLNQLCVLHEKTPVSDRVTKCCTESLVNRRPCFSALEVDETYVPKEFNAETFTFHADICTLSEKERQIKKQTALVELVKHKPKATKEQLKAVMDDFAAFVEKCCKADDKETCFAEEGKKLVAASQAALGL

SMILES | EC50 [1] | selectivity ratio [2] | EC50 [3] | EC50 [4] | EC50 [5] | EC50 [6] | IC50 at 70 h [7] | selectivity ratio [8] | logD [9] | solubility kinetic [10] | solubility kinetic [11] | fraction unbound [12] | half-life [13] | microsomal CLint at 0.5 µM [14] | further results
CCC(CC)NC(=O)c1nc(-c2ccc(F)c(C)c2)cnc1N | 0.025 µM | 423 | 0.038 µM | 13 µM | > 10 µM | 1.8 µM | 24 µM | 630 | 4.8 | < 1.6 µg/mL | < 1.6 µg/mL | 0.022 | 8 min | 212 µL/min/mg | –
CCC(CC)NC(=O)c1nc(-c2cccc(C)c2)cnc1N | 0.11 µM | 774 | 0.14 µM | 20 µM | > 10 µM | 4.1 µM | 20 µM | 150 | 4.7 | 1.6 µg/mL (≈ 5.36 µM) | 1.6 µg/mL (≈ 5.36 µM) | 0.036 | 9 min | 194 µL/min/mg | –
Nc1nc(N)nc(Nc2ccc([As]3SCC(CO)S3)cc2)n1 (centres undefined) [MELARSOPROL] | – | – | – | – | – | – | – | – | – | – | – | – | – | – | mortality at 10 day [15]: 5.9%
Cc1cccc(-c2cnc(N)c(C(=O)NC3=CCCC3)n2)c1 | – | – | – | – | – | – | – | – | – | – | – | – | – | – | Drug metabolism [16]: metabolite_detected; Drug metabolism [17]: metabolite_detected
Nc1ncc(-c2cccc(CO)c2)nc1C(=O)NC1CCCC1 | – | – | – | – | – | – | – | – | – | – | – | – | – | – | Drug metabolism [16]: metabolite_detected; Drug metabolism [17]: metabolite_detected
Cc1cccc(-c2cnc(N)c(C(=O)NC3CCCC3)n2)c1 | 0.035 µM | 2380 | 0.024 µM | 17 µM | > 10 µM | 4.9 µM | 42 µM | 1790 | 4.6 | 3.1 µg/mL (≈ 10.5 µM) | 3.1 µg/mL (≈ 10.5 µM) | 0.023 | 7 min | 266 µL/min/mg | metabolised at 1 h, 10 µM [18]: 92%; Drug metabolism [19]: metabolite_detected; Drug metabolism [20]: metabolite_detected; metabolised at 1 h, 10 µM [21]: 6%; Drug metabolism [22]: metabolite_detected
CCC(C)NC(=O)c1nc(-c2ccc(F)cc2)cnc1N (centres undefined) | 0.4 µM | > 206 | 0.22 µM | 17 µM | > 10 µM | 9 µM | 17 µM | 61 | 4 | 6.3 µg/mL (≈ 21.9 µM) | 50 µg/mL (≈ 173 µM) | 0.058 | 15 min | 119 µL/min/mg | Drug uptake [23]: 1069.5 ng/g; Kp at 5 min [24]: 5.1
Nc1ncc(-c2ccccc2)nc1C(=O)NC1CCCC1 | 0.26 µM | > 368 | 0.14 µM | 13 µM | > 10 µM | 6.1 µM | 20 µM | 140 | 4.1 | 6.3 µg/mL (≈ 22.3 µM) | 25 µg/mL (≈ 88.5 µM) | 0.042 | 9 min | 198 µL/min/mg | Drug uptake [23]: 1192.3 ng/g; Kp at 5 min [24]: 5.7
N#Cc1ccccc1-c1cnc(N)c(C(=O)NC2CCCC2)n1 | 0.2 µM | 416 | 0.57 µM | 5.2 µM | > 10 µM | 2.5 µM | 11 µM | 19 | 3.9 | 3.1 µg/mL (≈ 10.1 µM) | < 1.6 µg/mL | 0.038 | 10 min | 165 µL/min/mg | –
CCC(CC)NC(=O)c1nc(-c2ccc(F)cc2)cnc1N | 0.08 µM | 1024 | 0.053 µM | 15 µM | > 10 µM | 7.6 µM | 28 µM | 540 | 4.4 | 3.1 µg/mL (≈ 10.3 µM) | 3.1 µg/mL (≈ 10.3 µM) | 0.036 | 21 min | 84 µL/min/mg | half-life [25]: 546 min; Vd [26]: 14.7 L/kg; clearance [27]: 69 mL/min/kg; CL [28]: 60%
CCC(C)NC(=O)c1nc(-c2cccc(Cl)c2)cnc1N (centres undefined) | 0.48 µM | 175 | 2.02 µM | 25 µM | > 10 µM | 1.1 µM | 39 µM | 20 | 4.4 | 1.6 µg/mL (≈ 5.25 µM) | 1.6 µg/mL (≈ 5.25 µM) | 0.028 | 12 min | 147 µL/min/mg | –
CCC(CC)NC(=O)c1nc(-c2ccc(F)cc2C#N)cnc1N | 0.1 µM | 850 | 0.089 µM | 19 µM | > 10 µM | 2.9 µM | 20 µM | 230 | 4.2 | < 1.6 µg/mL | 1.6 µg/mL (≈ 4.89 µM) | 0.029 | 26 min | 66 µL/min/mg | –
Cc1cccc(-c2c[n+]([O-])c(N)c(C(=O)NC3CCCC3)n2)c1 | – | – | – | – | – | – | – | – | – | – | – | – | – | – | Drug metabolism [16]: metabolite_detected; Drug metabolism [17]: metabolite_detected; Drug metabolism [29]: metabolite_detected
Nc1ncc(-c2cccc(C(=O)O)c2)nc1C(=O)NC1CCCC1 | – | – | – | – | – | – | – | – | – | – | – | – | – | – | Drug metabolism [16]: metabolite_detected; Drug metabolism [17]: metabolite_detected
